# Measurements taken from US20260256808A1, “Istaroxime-Containing Intravenous Formulation for the Treatment of Pre-Cardiogenic Shock and Cardiogenic Shock” (Windtree Therapeutics, Inc., priority 2022, published 2026).
# Entries after “also recorded” stand apart in the source; their conditions may differ.
# Columns and labels:
# [1] = system: patients hospitalized with ADHF and reduced LV systolic function; details: 0.5-1.0-1.5 μg/kg/min, cited from earlier work
# patients with ADHF = details: cited from earlier work
# [2] = system: patients with AHF and exhibiting pre-cardiogenic shock (SCAI stage B); assay: SEISMIC: randomized, double-blind, placebo-controlled study of 24 h istaroxime infusion in pre-cardiogenic shock; type: in vivo, human
# Procedure: Pre-CS was defined as defined as systolic blood pressure (SBP)<90 mmHg without hypoperfusion, venous lactate >2 mmol/L and/or mechanical or inotropic support. The inclusion criteria included AHF-related SCAI stage B pre-CS, 18-85 years of age, an ongoing hospitalization for AHF, left ventricular ejection fraction <40%, persistent hypotension (SBP between 75 and 90 mmHg), heart rate of 75-150 bpm and no need at time of screening or planned use for 6 h thereafter of mechanical support or intravenous therapy to increase BR According to the stage B SCAI classification, patients with clinical signs of peripheral hypoperfusion, venous lactate >2 mmol/L and/or on mechanical support or treatment with intravenous vasodilators, inotropes or vasopressors were excluded. Other exclusion criteria were concomitant or planned treatment with oral digoxin (could be randomized if the plasma concentration of digoxin at screening was <0.5 ng/ml); acute coronary syndrome or stroke within the past 3 months; coronary artery bypass graft or percutaneous coronary intervention within the past month or planned in the next month; life-threatening ventricular arrhythmia or implantable cardioverter defibrillator shock within the past month; sustained ventricular tachycardia in the last 3 months or uncontrolled arrhythmia; fever >38° C.; estimated glomerular filtration rate (eGFR)[…]; serum potassium >5.3 or <3.5 mmol/L; stroke or transient ischaemic accident within the past 3 months; and acute respiratory distress syndrome.
# The patients were randomized centrally, using an interactive response technology, to receive istaroxime or placebo at a ratio of 1:1. Study medication was supplied in uniquely-numbered kits containing identical vials of lyophilized powder (istaroxime plus lactose), reconstituted by adding 5 ml saline to the vial. Istaroxime was administered as a continuous infusion 1.0 μg/kg/min for 24 h. The infusion rate could be decreased at the discretion of the investigator based on the development of tolerability issues (such as nausea), significant bradycardia, or greater than desired BP elevation.
# The primary efficacy endpoint was the area under the curve representing the change in SBP from baseline, start of study drug infusion, through 6 h (SBP AUC). The secondary endpoints included SBP AUC through 24 h; changes from baseline in SBP (particularly at 6 and 24 h), diastolic blood pressure (DBP) and mean arterial pressure (MAP); changes from baseline in heart rate (HR); treatment failure score (based on death, circulatory, respiratory, or renal mechanical support or intravenous inotrope or vasopressor treatment, and changes in SBP); treatment failure defined as death or need for circulatory, respiratory, or renal mechanical support or intravenous inotrope or vasopressor treatment; increase from baseline in SBP >5% and/or >10 mmHg; changes in quality of life measured by the EuroQol 5 Dimension 5 Level (EQ-5D-5L); change from baseline to 24 h in echocardiography parameters; changes in troponin and N-terminal pro-B-type natriuretic peptide (NT-proBNP); hospital readmission for heart failure and for any cause by day 30; in-hospital worsening heart failure to day 5; and length of hospital stay. In-hospital worsening heart failure was defined as worsening signs and/or symptoms of heart failure since the previous assessment that required an intensification of intravenous therapy for heart failure or mechanical ventilatory, renal, or circulatory support. The safety endpoints were assessed throughout the study and included the incidence of adverse events; changes in vital signs and in 12-lead electrocardiogram (ECG) parameters; incidence of clinically or haemodynamically significant episodes of supraventricular or ventricular arrhythmias detected by continuous ECG monitoring; standard laboratory parameters; renal function measures; cardiac troponin I or T; and mortality through day 30. […]
# [3] = 24 h Post-Treatment, adjusted least square mean change
# [4] = 24 h Post-Treatment, adjusted least square mean change, listed as istaroxime
# [5] = 24 h Post-Treatment, mean, n = 29
structure (smiles),measurement,setting,value
C[C@]12CCC(=NOCCN)C[C@@H]1C(=O)C[C@@H]1[C@@H]2CC[C@]2(C)C(=O)CC[C@@H]12 [Istaroxime],HR during infusion,[1]; 6-hour infusion,tended to decrease
same,SBP during infusion,[1]; 6-hour infusion,slightly increased in a dose-dependent manner
same,change from baseline in PCWP,"[1]; after 6 h infusion, vs placebo, plateaued after 3 hours",dose-dependent improvements in PCWP
same,E/Ea ratio,"patients with ADHF; 0.5 μg/kg/min and 1.0 μg/kg/min infused for up to 24 hours, vs placebo",an improvement in both treatment groups
same,diastolic function parameters,patients with ADHF; measured after 6 hours of infusion,significant improvements for most of the diastolic function parameters
same,adjusted SBP increase at 6 h,"[2]; 6 h after infusion start, (SE), p=0.045 vs placebo",12.3 (SE 1.71) mmHg
same,"Mitral Regurgitation Mild, number of patients",[2]; 24 h Post Treatment,11
same,"Mitral Regurgitation Mild, share of patients",[2]; 24 h Post Treatment,(39%)
same,"Mitral Regurgitation Moderate, number of patients",[2]; 24 h Post Treatment,16
same,"Mitral Regurgitation Moderate, share of patients",[2]; 24 h Post Treatment,(57%)
same,"Mitral Regurgitation None, number of patients",[2]; 24 h Post Treatment,1
same,"Mitral Regurgitation None, share of patients",[2]; 24 h Post Treatment,(4%)
same,"Cardiac Index, Change from Baseline",[2]; [3],0.156 L/min/m^2
same,"Cardiac Output, Change from Baseline",[2]; [3],0.23 L/min
same,"E/A Ratio, Change from Baseline",[2]; [3],−0.380
same,"E/Ea Ratio, Change from Baseline",[2]; [3],−0.615
same,"Ejection Time, Change from Baseline",[2]; [3],-2.807 ms
same,"Inferior Vena Cava Diameter, Change from Baseline",[2]; [3],−2.503 mm
same,"Left Atrial Area, Change from Baseline",[2]; [3],−1.817 cm^2
same,"Left Atrial Volume, Change from Baseline",[2]; [3],-7.440 mL
same,"Left Ventricular Ejection Fraction, Change from Baseline",[2]; [3],2.678%
same,"Left Ventricular End-Diastolic Diameter, Change from Baseline",[2]; [3],−0.668 mm
same,"Left Ventricular End-Diastolic Volume, Change from Baseline",[2]; [3],-6.501 mL
same,"Left Ventricular End-Systolic Diameter, Change from Baseline",[2]; [3],−0.719 mm
same,"Left Ventricular End-Systolic Volume, Change from Baseline",[2]; [3],-8.692 mL
same,"Pulmonary Artery Systolic Pressure, Change from Baseline",[2]; [3],−7.084 mmHg
same,"Stroke Volume Index, Change from Baseline",[2]; [3],4.001 ml/m^2
same,"Tricuspid Annular Plane Systolic Excursion, Change from Baseline",[2]; [3],0.0860 mm
same,"Cardiac Index, Change from Baseline",[2]; [4],0.16 ± 0.1 L/min/m^2
same,"Left Atrial Area, Change from Baseline",[2]; [4],−1.8+0.5 cm^2
same,"Left Ventricular End-Diastolic Volume, Change from Baseline",[2]; [4],−6.5+4.9 ml
same,"Left Ventricular End-Systolic Volume, Change from Baseline",[2]; [4],−8.7+4.2 ml
same,"Cardiac Index, Observed",[2]; [5],2.1 L/min/m^2
same,"Cardiac Output, Observed",[2]; [5],3.93 L/min
same,"E/A Ratio, Observed",[2]; [5],1.5
same,"E/Ea Ratio, Observed",[2]; [5],12.2
same,"Ejection Time, Observed",[2]; [5],219.0 ms
same,"Inferior Vena Cava Diameter, Observed",[2]; [5],19.5 mm
same,"Left Atrial Area, Observed",[2]; [5],27.1 cm^2
same,"Left Atrial Volume, Observed",[2]; [5],95.2 mL
same,"Left Ventricular Ejection Fraction, Observed",[2]; [5],29.5%
same,"Left Ventricular End-Diastolic Diameter, Observed",[2]; [5],61.3 mm
same,"Left Ventricular End-Diastolic Volume, Observed",[2]; [5],194.3 mL
same,"Left Ventricular End-Systolic Diameter, Observed",[2]; [5],52.8 mm
same,"Left Ventricular End-Systolic Volume, Observed",[2]; [5],135.7 mL
same,"Pulmonary Artery Systolic Pressure, Observed",[2]; [5],36.8 mmHg
same,"Stroke Volume Index, Observed",[2]; [5],28.3 ml/m^2
same,"Tricuspid Annular Plane Systolic Excursion, Observed",[2]; [5],15.9 mm
same,adjusted change in SBP at 24 h,"[2]; 24 h after infusion start, (SE), p=0.543 vs placebo",17.1 (SE 2.36) mmHg
same,change in DBP,"[2]; FIG. 3C, up to 96 h, persisting beyond the 24 h of drug administration",increases were noted
same,change in MAP,"[2]; FIG. 4A, persisting beyond the 24 h of drug administration",increases were noted
same,adjusted mean 6 h AUC of change in SBP from baseline,"[2]; infusion start to hour 6, istaroxime iv infusion 24 h, adjusted mean (SE), p=0.017 vs placebo",53.1 (SE 6.88) mmHg·h
same,adjusted mean 24 h SBP AUC,"[2]; infusion start to hour 24, adjusted mean (SE), p=0.025 vs placebo",291.2 (SE 27.5) mmHg·h
same,increase of adjusted mean 6 h SBP AUC versus placebo,[2]; istaroxime 53.1 vs placebo 30.9 mmHg·h,72%
same,increase of adjusted mean 24 h SBP AUC versus placebo,[2]; istaroxime 291.2 vs placebo 208.7 mmHg·h,40%
same,effect on heart rate / pulse,[2]; patients with pre-cardiogenic shock,without effects on pulse; also recorded: not by increasing the heart rate
